{"source": "paper PMC6737244", "about": "“Cathelicidin Peptides Restrict Bacterial Growth via Membrane Perturbation and Induction of Reactive Oxygen Species” (mBio, 2019)", "key": {"Klebsiella pneumoniae C2": {"system": "Klebsiella pneumoniae C2", "format": "cell-based", "experimental": "(§1) MICs were determined by using the broth microdilution method based on the general recommendations of the Clinical and Laboratory Standards Institute (CLSI). Bacteria were grown in CAMHB overnight. They were then diluted into fresh medium the following morning and grown to early log phase. The cultures were then diluted to approximately 5 × 10^5 CFU ml^−1, and 100 μl was added to sterile 96-well polypropylene microtiter plates (Corning, NY, USA) preloaded with twofold dilutions of antimicrobial peptides. […] All MIC assays were determined from at least three independent assays."}, "[1]": {"system": "Klebsiella pneumoniae 88 (NDM1+)", "format": "cell-based", "experimental": "as §1"}, "[2]": {"system": "Klebsiella pneumoniae ATCC 700603", "format": "cell-based", "experimental": "as §1"}, "Escherichia coli UTI89": {"system": "Escherichia coli UTI89", "format": "cell-based", "experimental": "as §1"}, "[3]": {"system": "Enterobacter cloacae OC4080", "format": "cell-based", "experimental": "as §1"}, "[4]": {"system": "Pseudomonas aeruginosa OC4083", "format": "cell-based", "experimental": "as §1"}, "[5]": {"system": "Pseudomonas aeruginosa ATCC 27853", "format": "cell-based", "experimental": "as §1"}, "[6]": {"system": "Escherichia coli ATCC 35218", "format": "cell-based", "experimental": "as §1"}, "[7]": {"system": "Pseudomonas aeruginosa PAO1", "format": "cell-based", "experimental": "as §1"}, "[8]": {"system": "Escherichia coli ATCC 25922", "format": "cell-based", "experimental": "as §1"}, "[9]": {"system": "Klebsiella pneumoniae 262 (NDM1+)", "format": "cell-based", "experimental": "as §1"}, "Escherichia coli MC4100a": {"system": "Escherichia coli MC4100a", "format": "cell-based", "experimental": "as §1"}, "[10]": {"system": "Enterobacter cloacae OC4092", "format": "cell-based", "experimental": "as §1"}, "[11]": {"system": "Klebsiella pneumoniae OC8893", "format": "cell-based", "experimental": "as §1"}, "[12]": {"system": "Klebsiella pneumoniae OC4110", "format": "cell-based", "experimental": "as §1"}, "Escherichia coli OC4075": {"system": "Escherichia coli OC4075", "format": "cell-based", "experimental": "as §1"}, "Gram-positive bacteria": {"system": "Gram-positive bacteria", "conditions": "cited from earlier work", "description": "The human cathelicidin LL-37 has important roles in modulating inflammatory responses. […] Perhaps because they are released in response to bacterial infection and tissue injuries, LL-37 and other cathelicidins can promote wound healing and reduce fibrosis ([8][–][10]). All of these desirable activities have generated significant interest in developing cathelicidins to treat bacterial infection and injuries, however, c ..."}}, "note": "Ends that are not written are not given here.", "data": [{"sequence": "GRFKRFRKKLKKLFKKLSPVIPLLHLG [BMAP-27B, reference compound]", "values": [{"measurement": "MIC", "setting": "Klebsiella pneumoniae C2", "value": 4, "unit": "µM"}, {"measurement": "MIC", "setting": "[1]", "value": 4, "unit": "µM"}, {"measurement": "MIC", "setting": "[2]", "value": 4, "unit": "µM"}, {"measurement": "MIC", "setting": "Escherichia coli UTI89", "value": 4, "unit": "µM"}, {"measurement": "MIC", "setting": "[3]", "value": 4, "unit": "µM"}, {"measurement": "MIC", "setting": "[4]", "value": 4, "unit": "µM"}, {"measurement": "MIC", "setting": "[5]", "value": 4, "unit": "µM"}, {"measurement": "MIC", "setting": "[6]", "value": 4, "unit": "µM"}, {"measurement": "MIC", "setting": "[7]", "value": 4, "unit": "µM"}, {"measurement": "MIC", "setting": "[8]", "value": 4, "unit": "µM"}, {"measurement": "MIC", "setting": "[9]", "value": 4, "unit": "µM"}, {"measurement": "MIC", "setting": "Escherichia coli MC4100a", "value": 4, "unit": "µM"}, {"measurement": "MIC", "setting": "[10]", "value": 4, "unit": "µM"}, {"measurement": "MIC", "setting": "[11]", "value": 8, "unit": "µM"}, {"measurement": "MIC", "setting": "[12]", "value": 8, "unit": "µM"}, {"measurement": "MIC", "setting": "Escherichia coli OC4075", "value": 4, "unit": "µM"}, {"measurement": "Fold-higher concentration needed to reach the MICs for Gram-positive bacteria", "setting": "Gram-positive bacteria", "value": "ca. 10 fold"}]}]}
